Earlier results in patent publication US20240197589A1, “ORAL CARE COMPOSITIONS COMPRISING GERANYLGERANIOL AND METHODS OF USE THEREOF” (AMERICAN RIVER NUTRITION, LLC, priority 2022, published 2024).

Tests used:
[1] = in combination with amoxicillin, 200 mg two times per day for 5 days, following third molar removal
[2] = system: Streptococcus mutans
[3] = system: Porphyromonas gingivalis
[4] = system: Mycobacterium tuberculosis; conditions: M. tuberculosis, at 6.25 ug/ml
[5] = system: Staphylococcus aureus; conditions: S. aureus
[6] = animals treated with both bisphosphonates and GG

Bromelain
study subjects with reduced swelling and pain [1]: up to 70% | dilution effective against Streptococcus mutans [2]: 2 mg/mL | dilution exerting antibacterial effects against Porphyromonas gingivalis [3]: 4.15 mg/mL

CC(C)=CCC/C(C)=C/CC/C(C)=C/CC/C(C)=C/CO [GG, geranylgeraniol]
inhibition of the bacterium [4]: 96% | concentration for optimum bactericidal effect [5]: 0.15 to 1.25 µg/mL | decrease of viable bacterial cell count ([5]; 0.15-1.25 ug/ml, within two hours): decreased viable bacterial cell count by a factor of two | improved gum and extracted socket healing [6]: 45-67%
